The record followed here is US20050100902A1, “5-cyano-1h-indole derivatives as antagonist of the inerleukine-8 receptors” (priority 2001, published 2005).

For orientation: melting point means the temperature, or range, at which the solid turns liquid. `N#Cc1ccc2[nH]c(-c3ccc(Cl)c(Cl)c3)c(CCCC(=O)O)c2c1` [Example 1, 2-(3,4-dichlorophenyl)-5-cyano-1H-indole-3-butanoic Acid] displayed a melting point of 158 to 160 °C.
